Consider 6 molecules from patent US8362004B2, “Piperazine analogs as broad-spectrum influenza antivirals” (priority 2010, dated 2013).

For one experiment, the system named is influenza A/WSN/33. Nature of the experiment: Antiviral assay in MDCK cells, viral neuraminidase (MUNANA) readout, A/H1N1/WSN. It is filed as cell-based. The settings on record: read-out: A/H1N1/WSN Activity.
In the next experiment the test system is A/H5N1/Duck_MN. Nature of the experiment: microbe, parasite or virus in culture. It counts as cell-based, influenza A.
Another experiment concerns A/H5N1/Duck_PA. Put plainly: microbe, parasite or virus in culture. It counts as cell-based, influenza A.
For a further experiment, the system named is A/H5N1/Gull_PA. Nature of the experiment: microbe, parasite or virus in culture. It is filed as cell-based, influenza A.
In experiment [1] the test system is influenza A/Brisbane/10/2007. Nature of the experiment: Antiviral assay in MDCK cells, viral neuraminidase (MUNANA) readout, A/H3N2/Brisbane. It counts as cell-based. Particulars: read-out: A/H3N2/Brisbane Activity.
The subject of experiment [2] is Influenza A/Solomon Islands/3/06. Put plainly: Antiviral assay in MDCK cells, viral neuraminidase (MUNANA) readout, A/H1N1/Solomon Islands. It is filed as cell-based. The settings on record: read-out: A/H1N1/Solomon Islands Activity.
Where [3] appears, read: MDCK cells, MOI 0.001, 48 hrs post infection, viral NA activity.
Setting [4] is: Influenza A virus, H5N1, read-out: A/H5N1/Duck_MN.
Setting [5] is: Influenza A virus, H5N1, read-out: A/H5N1/Duck_PA.
[6] abbreviates: Influenza A virus, H5N1, read-out: A/H5N1/Gull_PA.

The structures appear in SMILES notation. Where two headings read alike, the source gives them in different places. Some results are limits rather than exact numbers.

Consider `COc1ccccc1-c1noc(C)c1C(=O)N1CCN(c2cc(NC(=O)c3nccs3)c([N+](=O)[O-])cc2Cl)CC1` [Example 5], for which the EC50 is below 0.1 µM with influenza A/WSN/33 (setting [3]); below 0.1 µM with A/H5N1/Duck_MN (read-out: A/H5N1/Duck_MN); below 0.1 µM in the experiment with A/H5N1/Duck_PA (read-out: A/H5N1/Duck_PA); below 0.1 µM in the experiment with A/H5N1/Gull_PA (read-out: A/H5N1/Gull_PA); below 1 µM in experiment [1] (setting [3]); below 0.1 µM in experiment [2] (setting [3]).
As for `COc1ccccc1-c1noc(C)c1C(=O)N1CCN(c2cc(NC(=O)c3ccc(N(C)C)cc3)c([N+](=O)[O-])cc2Cl)CC1` [Example 14, N-(4-chloro-5-(4-(3-(2-methoxyphenyl)-5-methylisoxazole-4-carbonyl)piperazin-1-yl)-2-nitrophenyl)-4-(dimethylamino)benzamide], the EC50 was below 0.1 µM with influenza A/WSN/33 (Influenza A virus, MDCK, 48 h); below 0.1 µM in the experiment with A/H5N1/Duck_MN (setting [4]); below 1 µM in the experiment with A/H5N1/Duck_PA (setting [5]); below 0.1 µM in the experiment on A/H5N1/Gull_PA (setting [6]); below 0.1 µM in experiment [1] (Influenza A virus, H3N2, MDCK, 48 h); below 0.1 µM in experiment [2] (Influenza A virus, H1N1, MDCK, 48 h).
Regarding `CCOc1ccc(C(=O)Nc2cc(N3CCN(C(=O)c4c(-c5ccccc5OC)noc4C)CC3)c(Cl)cc2[N+](=O)[O-])cc1` [Example 15], the EC50 is below 1 µM in the experiment with A/H5N1/Duck_MN (read-out: A/H5N1/Duck_MN), below 1 µM with A/H5N1/Duck_PA (read-out: A/H5N1/Duck_PA) and below 0.1 µM in the experiment with A/H5N1/Gull_PA (read-out: A/H5N1/Gull_PA).
On to `COc1ccc(C(=O)Nc2cc(N3CCN(C(=O)c4c(-c5cccc6ccccc56)noc4C)CC3)c(Cl)cc2[N+](=O)[O-])cc1` [Example 77, N-(4-chloro-5-(4-(5-methyl-3-(naphthalen-1-yl)isoxazole-4-carbonyl)piperazin-1-yl)-2-nitrophenyl)-4-methoxybenzamide], for which the values for the EC50 in the experiment on A/H5N1/Duck_MN (setting [4]), with A/H5N1/Duck_PA (setting [5]) and in the experiment on A/H5N1/Gull_PA (setting [6]) were below 1 µM, below 1 µM and below 0.1 µM, respectively.
With `Cc1onc(-c2cccc3ccccc23)c1C(=O)N1CCN(c2cc(NC(=O)c3nccs3)c([N+](=O)[O-])cc2Cl)CC1` [Example 78, N-(4-chloro-5-(4-(5-methyl-3-(naphthalen-1-yl)isoxazole-4-carbonyl)piperazin-1-yl)-2-nitrophenyl)thiazole-2-carboxamide], the EC50 in the experiment on A/H5N1/Duck_MN (setting [4]) was below 1 µM; in the experiment with A/H5N1/Duck_PA (setting [5]) it was below 1 µM; in the experiment with A/H5N1/Gull_PA (setting [6]) it was below 0.1 µM.
In the case of `COc1ccccc1-c1nnn(C)c1C(=O)N1CCN(c2cc(NC(=O)c3ccc(N4CCOC4=O)cc3)c([N+](=O)[O-])cc2Cl)CC1` [Example 93], the EC50 is below 0.1 µM with influenza A/WSN/33 (setting [3]); below 1 µM in the experiment with A/H5N1/Duck_MN (read-out: A/H5N1/Duck_MN); below 1 µM in the experiment on A/H5N1/Duck_PA (read-out: A/H5N1/Duck_PA); below 0.1 µM in the experiment with A/H5N1/Gull_PA (read-out: A/H5N1/Gull_PA); below 1 µM in experiment [1] (setting [3]); below 0.1 µM in experiment [2] (setting [3]).
